Values quoted from earlier work, collected in patent publication US7695734B2, “Extended release tablet formulation containing pramipexole or a pharmaceutically acceptable salt thereof” (Boehringer Ingelheim International GmbH, priority 2004, dated 2010).

Tests used:
[1] = light
dopamine D2 receptor = dopamine D2 receptor (Homo sapiens, UniProt P14416)
dopamine D2 receptor, sequence (P14416 whole entry, species assumed): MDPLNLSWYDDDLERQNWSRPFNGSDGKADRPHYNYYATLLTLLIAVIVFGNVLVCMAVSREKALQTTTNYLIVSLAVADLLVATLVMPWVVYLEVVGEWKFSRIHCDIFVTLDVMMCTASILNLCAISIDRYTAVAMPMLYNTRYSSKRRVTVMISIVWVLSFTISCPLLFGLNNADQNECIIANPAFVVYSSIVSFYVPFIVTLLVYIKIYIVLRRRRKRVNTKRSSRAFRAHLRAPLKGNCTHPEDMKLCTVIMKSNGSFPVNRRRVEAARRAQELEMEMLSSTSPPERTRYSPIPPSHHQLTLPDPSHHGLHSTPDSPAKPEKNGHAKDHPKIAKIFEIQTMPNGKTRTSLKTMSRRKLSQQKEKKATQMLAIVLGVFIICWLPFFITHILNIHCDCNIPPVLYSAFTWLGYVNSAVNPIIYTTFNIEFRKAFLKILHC

- stability in solution [1]: light sensitive
- agonist activity (dopamine D2 receptor; dopamine D2 receptor): full agonist
Compound: CCCN[C@H]1CCc2nc(N)sc2C1 [Pramipexole, (S)-2-amino-4,5,6,7-tetrahydro-6-(propylamino)benzothiazole]
- receptor selectivity (dopamine D2 receptor; dopamine receptors): receptor selectivity for the dopamine D2 family of dopamine receptors
